Data published in patent US10499642B2, “Isoxazoline-substituted benzamides and analogues as insecticides” (SYNGENTA PARTICIPATIONS AG, priority 2015, dated 2019).

How the values were obtained:
Assay type in all cases: in vivo
[1] = system: Tetranychus urticae; assay: Tetranychus urticae (two-spotted spider mite) bean leaf disc test; conditions: foliar, 192 h
Method: Tetranychus urticae (Two-Spotted Spider Mite):
Bean leaf discs on agar in 24-well microtiter plates were sprayed with aqueous test solutions prepared from 10′000 ppm DMSO stock solutions. After drying the leaf discs were infested with a mite population of mixed ages. The samples were assessed for mortality on mixed population (mobile stages) 8 days after infestation.

[2] = system: Plutella xylostella; assay: Plutella xylostella (diamond back moth) artificial diet test; conditions: 120 h, read-out: effect in at least one of the two categories (mortality or growth inhibition)
Method: Plutella xylostella (Diamond Back Moth):
(§1) 24-well microtiter plates with artificial diet were treated with aqueous test solutions prepared from 10′000 ppm DMSO stock solutions by pipetting. After drying, the plates were infested with L2 larvae (10 to 15 per well). The samples were assessed for mortality and growth inhibition in comparison to untreated samples 5 days after infestation. The following compounds gave an effect of at least 80% in at least one of the two categories (mortality or growth inhibition) at an application rate of 200 ppm: […]

[3] = system: Thrips tabaci; assay: Thrips tabaci (onion thrips) sunflower leaf disc test; conditions: foliar, 144 h
Method: Thrips tabaci (Onion Thrips):
Sunflower leaf discs were placed on agar in 24-well microtiter plates and sprayed with aqueous test solutions prepared from 10′000 ppm DMSO stock solutions. After drying the leaf discs were infested with a thrips population of mixed ages. The samples were assessed for mortality 6 days after infestation.

[4] = system: Spodoptera littoralis; assay: Spodoptera littoralis (Egyptian cotton leaf worm) cotton leaf disc test; conditions: foliar, 72 h, read-out: control (at least one of mortality, anti-feedant effect, and growth inhibition)
Method: Spodoptera littoralis (Egyptian Cotton Leaf Worm)
Cotton leaf discs were placed on agar in 24-well microtiter plates and sprayed with aqueous test solutions prepared from 10′000 ppm DMSO stock solutions. After drying the leaf discs were infested with five L1 larvae. The samples were assessed for mortality, anti-feedant effect, and growth inhibition in comparison to untreated samples 3 days after infestation. Control of Spodoptera littoralis by a test sample is when at least one of mortality, anti-feedant effect, and growth inhibition is higher than the untreated sample.

[5] = system: Myzus persicae; assay: Myzus persicae (green peach aphid) sunflower leaf disc test; conditions: foliar, 144 h
Method: Myzus persicae (Green Peach Aphid):
Sunflower leaf discs were placed on agar in a 24-well microtiter plate and sprayed with test solutions at an application rate of 200 ppm. After drying, the leaf discs were infested with an aphid population of mixed ages. After an incubation period of 6 days after treatment, samples were checked for mortality. The following compounds gave at least 80% mortality of Myzus persicae: […]

[6] = system: Diabrotica Balteata; assay: Diabrotica balteata (corn root worm) maize sprout test; conditions: 96 h, read-out: effect in at least one of the two categories (mortality or growth inhibition)
Method: Diabrotica Balteata, (Corn Root Worm)
as §1, with “Maize sprouts, placed on an agar layer in 24-well” for “24-well”, “plates” for “plates with artificial diet”, “spraying.” for “pipetting.”, “(6” for “(10”, “10” for “15”, “4” for “5”

Cc1cc(C2=NO[C@@](c3cc(Cl)c(Cl)c(Cl)c3)(C(F)(F)F)C2)ccc1C(=O)NC1CC(OCC(=O)N(C)C)=NO1 (stereo partly drawn) [Compound A114, N-[3-[2-(dimethylamino)-2-oxo-ethoxy]-4,5-dihydroisoxazol-5-yl]-2-methyl-4-[(5S)-5-(3,4,5-trichlorophenyl)-5-(trifluoromethyl)-4H-isoxazol-3-yl]benzamide]
≥ 80%: mortality at 200 ppm [1] | percent effect (mortality or growth inhibition) at 200 ppm [2] | mortality at 200 ppm [3] | percent control (mortality, anti-feedant effect or growth inhibition) at 200 ppm [4] | mortality at 200 ppm [5]

CNC1=NOC(NC(=O)c2ccc(C3=NO[C@@](c4cc(Cl)c(F)c(Cl)c4)(C(F)(F)F)C3)cc2C)C1 (stereo partly drawn) [Compound A120]
≥ 80%: mortality at 200 ppm [1] | percent effect (mortality or growth inhibition) at 200 ppm [2] | mortality at 200 ppm [3] | percent effect (mortality or growth inhibition) at 200 ppm [6] | percent control (mortality, anti-feedant effect or growth inhibition) at 200 ppm [4] | mortality at 200 ppm [5]

Cc1cc(C2=NO[C@@](c3cc(Cl)c(Cl)c(Cl)c3)(C(F)(F)F)C2)ccc1C(=O)NC1CC(OCCC(C)C)=NO1 (stereo partly drawn) [Compound A106, N-(3-isopentyloxy-4,5-dihydroisoxazol-5-yl)-2-methyl-4-[(5S)-5-(3,4,5-trichlorophenyl)-5-(trifluoromethyl)-4H-isoxazol-3-yl]benzamide]
≥ 80%: mortality at 200 ppm [1] | percent effect (mortality or growth inhibition) at 200 ppm [2] | mortality at 200 ppm [3] | percent effect (mortality or growth inhibition) at 200 ppm [6] | percent control (mortality, anti-feedant effect or growth inhibition) at 200 ppm [4] | mortality at 200 ppm [5]

C=C(C)COC1=NOC(NC(=O)c2ccc(C3=NO[C@@](c4cc(Cl)c(F)c(Cl)c4)(C(F)(F)F)C3)cc2C)C1 (stereo partly drawn) [Compound A080]
≥ 80%: mortality at 200 ppm [1] | percent effect (mortality or growth inhibition) at 200 ppm [2] | mortality at 200 ppm [3] | percent effect (mortality or growth inhibition) at 200 ppm [6] | percent control (mortality, anti-feedant effect or growth inhibition) at 200 ppm [4] | mortality at 200 ppm [5]

CCOCCOC1=NOC(NC(=O)c2ccc(C3=NO[C@@](c4cc(Cl)c(Cl)c(Cl)c4)(C(F)(F)F)C3)cc2C)C1 (stereo partly drawn) [Compound A107, N-[3-(2-ethoxyethoxy)-4,5-dihydroisoxazol-5-yl]-2-methyl-4-[(5S)-5-(3,4,5-trichlorophenyl)-5-(trifluoromethyl)-4H-isoxazol-3-yl]benzamide]
≥ 80%: mortality at 200 ppm [1] | percent effect (mortality or growth inhibition) at 200 ppm [2] | mortality at 200 ppm [3] | percent effect (mortality or growth inhibition) at 200 ppm [6] | percent control (mortality, anti-feedant effect or growth inhibition) at 200 ppm [4] | mortality at 200 ppm [5]

Cc1cc(C2=NO[C@@](c3cc(Cl)cc(Cl)c3)(C(F)(F)F)C2)ccc1C(=O)NC1CC(OCC(F)(F)F)=NO1 (stereo partly drawn) [Compound A130, 4-[(5S)-5-(3,5-dichlorophenyl)-5-(trifluoromethyl)-4H-isoxazol-3-yl]-2-methyl-N-[3-(2,2,2-trifluoroethoxy)-4,5-dihydroisoxazol-5-yl]benzamide]
≥ 80%: mortality at 200 ppm [1] | percent effect (mortality or growth inhibition) at 200 ppm [2] | mortality at 200 ppm [3] | percent effect (mortality or growth inhibition) at 200 ppm [6] | percent control (mortality, anti-feedant effect or growth inhibition) at 200 ppm [4] | mortality at 200 ppm [5]

Cc1cc(C2=NO[C@@](c3cc(Cl)cc(Cl)c3)(C(F)(F)F)C2)ccc1C(=O)N(C=O)C1CC(Br)=NO1 (stereo partly drawn) [Compound A056, N-(3-bromo-4,5-dihydroisoxazol-5-yl)-4-[(5S)-5-(3,5-dichlorophenyl)-5-(trifluoromethyl)-4H-isoxazol-3-yl]-N-formyl-2-methyl-benzamide]
≥ 80%: mortality at 200 ppm [1] | percent effect (mortality or growth inhibition) at 200 ppm [2] | mortality at 200 ppm [3] | percent effect (mortality or growth inhibition) at 200 ppm [6] | percent control (mortality, anti-feedant effect or growth inhibition) at 200 ppm [4] | mortality at 200 ppm [5]

CSC1=NOC(NC(=O)c2ccc(C3=NO[C@@](c4cc(Cl)cc(C(F)(F)F)c4)(C(F)(F)F)C3)cc2C)C1 (stereo partly drawn) [Compound A050]
≥ 80%: mortality at 200 ppm [1] | percent effect (mortality or growth inhibition) at 200 ppm [2] | mortality at 200 ppm [3] | percent effect (mortality or growth inhibition) at 200 ppm [6] | percent control (mortality, anti-feedant effect or growth inhibition) at 200 ppm [4] | mortality at 200 ppm [5]

COC1=NOC(NC(=O)c2ccc(C3=NOC(c4cc(Cl)cc(Cl)c4)(C(F)(F)F)C3)cc2C)C1 (stereo not drawn) [Compound A126]
≥ 80%: mortality at 200 ppm [1] | percent effect (mortality or growth inhibition) at 200 ppm [2] | mortality at 200 ppm [3] | percent effect (mortality or growth inhibition) at 200 ppm [6] | percent control (mortality, anti-feedant effect or growth inhibition) at 200 ppm [4] | mortality at 200 ppm [5]

CCOC1=NOC(NC(=O)c2ccc(C3=NO[C@@](c4cc(Cl)c(Cl)c(Cl)c4)(C(F)(F)F)C3)cc2C)C1 (stereo partly drawn) [Compound A059]
≥ 80%: mortality at 200 ppm [1] | percent effect (mortality or growth inhibition) at 200 ppm [2] | mortality at 200 ppm [3] | percent effect (mortality or growth inhibition) at 200 ppm [6] | percent control (mortality, anti-feedant effect or growth inhibition) at 200 ppm [4] | mortality at 200 ppm [5]

CCCOC1=NOC(NC(=O)c2ccc(C3=NO[C@@](c4cc(Cl)c(F)c(Cl)c4)(C(F)(F)F)C3)cc2C)C1 (stereo partly drawn) [Compound A070]
≥ 80%: mortality at 200 ppm [1] | percent effect (mortality or growth inhibition) at 200 ppm [2] | mortality at 200 ppm [3] | percent effect (mortality or growth inhibition) at 200 ppm [6] | percent control (mortality, anti-feedant effect or growth inhibition) at 200 ppm [4] | mortality at 200 ppm [5]

Cc1cc(C2=NO[C@@](c3cc(Cl)c(Cl)c(Cl)c3)(C(F)(F)F)C2)ccc1C(=O)NC1CC(OCc2ccccn2)=NO1 (stereo partly drawn) [Compound A112, 2-methyl-N-[3-(2-pyridylmethoxy)-4,5-dihydroisoxazol-5-yl]-4-[(5S)-5-(3,4,5-trichlorophenyl)-5-(trifluoromethyl)-4H-isoxazol-3-yl]benzamide]
≥ 80%: mortality at 200 ppm [1] | percent effect (mortality or growth inhibition) at 200 ppm [2] | mortality at 200 ppm [3] | percent effect (mortality or growth inhibition) at 200 ppm [6] | percent control (mortality, anti-feedant effect or growth inhibition) at 200 ppm [4] | mortality at 200 ppm [5]

Cc1cc(C2=NO[C@@](c3cc(Cl)cc(Cl)c3)(C(F)(F)F)C2)ccc1C(=O)NC1CC(Br)=NO1 (stereo partly drawn) [Compound A055]
≥ 80%: mortality at 200 ppm [1] | percent effect (mortality or growth inhibition) at 200 ppm [2] | mortality at 200 ppm [3] | percent effect (mortality or growth inhibition) at 200 ppm [6] | percent control (mortality, anti-feedant effect or growth inhibition) at 200 ppm [4] | mortality at 200 ppm [5]

CCOC(=O)C1=NOC(NC(=O)c2ccc(C3=NO[C@@](c4cc(Cl)c(F)c(Cl)c4)(C(F)(F)F)C3)cc2C)C1 (stereo partly drawn) [Compound A007, ethyl 5-[[4-[(5S)-5-(3,5-dichloro-4-fluoro-phenyl)-5-(trifluoromethyl)-4H-isoxazol-3-yl]-2-methyl-benzoyl]amino]-4,5-dihydroisoxazole-3-carboxylate]
≥ 80%: mortality at 200 ppm [1] | percent effect (mortality or growth inhibition) at 200 ppm [2] | mortality at 200 ppm [3] | percent effect (mortality or growth inhibition) at 200 ppm [6] | percent control (mortality, anti-feedant effect or growth inhibition) at 200 ppm [4]

CCS(=O)(=O)C1=NOC(NC(=O)c2ccc(C3=NO[C@@](c4cc(Cl)c(Cl)c(Cl)c4)(C(F)(F)F)C3)cc2C)C1 (stereo partly drawn) [Compound A053]
≥ 80%: mortality at 200 ppm [1] | percent effect (mortality or growth inhibition) at 200 ppm [2] | mortality at 200 ppm [3] | percent effect (mortality or growth inhibition) at 200 ppm [6] | percent control (mortality, anti-feedant effect or growth inhibition) at 200 ppm [4]
